Measurements published in patent US9504684B2, “Syk inhibitors” (Gilead Sciences, Inc., priority 2014, dated 2016).
Structures can show the parent of a compound that is named as a salt.

Legend:
human hepatocytes = assay: Human Hepatocyte Stability Assay; format: in vitro ADME
Experimental: The human […] stability of the compounds as predicted hepatocyte clearance in L/hr/kg was assessed. Compounds to be tested were diluted to 200 μM (4 μl of 10 mM DMSO stock into 196 μl ACN:H2O (50:50). Propranolol was used as a positive control, and buffer only without hepatocytes as 0% control. These were further diluted 4 μl with 891 μl KHB buffer (InVitroGRO catalog number Z99074) to provide 2× dosing solution. To each well of 24 well plate, 250 μl of the 2× dosing solution was added to each well with 250 μl of hepatocytes cells (1×10^6 viable cells/ml per well) or KHB for control samples to achieve a final compound concentration of 1 μM during incubation. The final solvent concentration was 0.01% DMSO and 0.25% ACN. The culture plate was placed on a rocker and incubated at 37° C., 5% CO2. Samples were collected at time 0, 1, 3, and 6 hours. The loss of parent compound was determined using LC-MS methods against a standard curve.

[1] = cited from earlier work
[2] = in vivo; cited from earlier work
[3] = comparison table of Example 12, head prints "(units)", L/hr/kg per Example 11
[4] = predicted hepatocyte clearance, human hepatocytes, 1 μM compound

SMILES	Hheps CL (human hepatocytes; [3]) [mL/min/kg]	Hheps CL (human hepatocytes; [4]) [mL/min/kg]	also measured
COc1ccc(Nc2nc(-c3cccc(N)c3)cn3ccnc23)cc1OC [6-(3-aminophenyl)-N-(3,4-dimethoxyphenyl)imidazo[1,2-a]pyrazin-8-amine, reference compound]	4	–	–
CC[C@]1(O)C[C@H]2CN(CCc3c([nH]c4ccccc34)[C@@](C(=O)OC)(c3cc4c(cc3OC)N(C=O)[C@H]3[C@@](O)(C(=O)OC)[C@H](OC(C)=O)[C@]5(CC)C=CCN6CC[C@]43[C@@H]65)C2)C1 [Vincristine Sulfate, vincristine sulfate]	–	–	solubility in 95% ethanol ([1]; 95% ethanol): only slightly soluble; solubility in methanol ([1]; methanol): soluble in methanol; solubility in water ([1]; water): freely soluble
Nc1cncc(-c2cn3ccnc3c(Nc3ccc(N4CCOCC4)cc3)n2)c1 [6-(5-aminopyridin-3-yl)-N-(4-morpholinophenyl)imidazo[1,2-a]pyrazin-8-amine, reference compound]	11.3	–	–
CC[C@]1(O)C[C@@H]2CN(CCc3c([nH]c4ccccc34)[C@@](C(=O)OC)(c3cc4c(cc3OC)N(C)[C@H]3[C@@](O)(C(N)=O)[C@H](O)[C@]5(CC)C=CCN6CC[C@]43[C@@H]65)C2)C1 [Vindesine, vindesine]	–	–	serum half-life [2]: 24 h
Cc1ncc(-c2cn3ccnc3c(Nc3ccc(N4CCOCC4)cc3)n2)cc1N [6-(5-amino-6-methylpyridin-3-yl)-N-(4-morpholinophenyl)imidazo[1,2-a]pyrazin-8-amine, reference compound]	13.3	–	–
COc1ccc(Nc2nc(-c3ccc(N)nc3)cn3ccnc23)cc1OC [6-(6-aminopyridin-3-yl)-N-(3,4-dimethoxyphenyl)imidazo[1,2-a]pyrazin-8-amine, reference compound]	15	–	–

Further lines, with some results ahead:

Hheps CL (human hepatocytes; [3]) [mL/min/kg]	Hheps CL (human hepatocytes; [4]) [mL/min/kg]	SMILES	also measured
2	2	Cc1ncc(-c2cn3ccnc3c(Nc3ccc(N4CCN(C5COC5)CC4)cc3)n2)nc1N [Ex.-1, 6-(6-amino-5-methylpyrazin-2-yl)-N-(4-(4-(oxetan-3-yl)piperazin-1-yl)phenyl)imidazo[1,2-a]pyrazin-8-amine]	–
1.3	1.3	Cc1c(-c2cncc(N)n2)nc(Nc2ccc(N3CCN(C4COC4)CC3)cc2)c2nccn12 [Ex.-4, 6-(6-aminopyrazin-2-yl)-5-methyl-N-(4-(4-(oxetan-3-yl)piperazin-1-yl)phenyl)imidazo[1,2-a]pyrazin-8-amine]	–
0.917	0.917	Nc1cncc(-c2cn3ccnc3c(Nc3ccc(N4CCN(C5COC5)CC4)cc3)n2)n1 [Ex.-2, 6-(6-aminopyrazin-2-yl)-N-(4-(4-(oxetan-3-yl)piperazin-1-yl)phenyl)imidazo[1,2-a]pyrazin-8-amine]	–
1.5	1.5	Nc1cncc(-c2cn3ccnc3c(Nc3ccc(N4CCO[C@@H](CO)C4)cc3)n2)n1 [Ex.-3, (R)-(4-(4-((6-(6-aminopyrazin-2-yl)imidazo[1,2-a]pyrazin-8-yl)amino)phenyl)morpholin-2-yl)methanol]	–
1.3	1.3	Nc1cncc(-c2cn3ccnc3c(Nc3ccc(N4CCN(CC(CO)CO)CC4)cc3)n2)n1 [Ex.-6, 2-((4-(4-((6-(6-aminopyrazin-2-yl)imidazo[1,2-a]pyrazin-8-yl)amino)phenyl)piperazin-1-yl)methyl)propane-1,3-diol]	–
1.2	1.2	Nc1cncc(-c2cn3ccnc3c(Nc3ccc(N4CCN(C5COC5)CC4)c(OCCO)c3)n2)n1 [Ex.-5, 2-(5-((6-(6-aminopyrazin-2-yl)imidazo[1,2-a]pyrazin-8-yl)amino)-2-(4-(oxetan-3-yl)piperazin-1-yl)phenoxy)ethanol]	–
0.83	0.83	Cc1ncc(-c2cn3ccnc3c(Nc3ccc(N4CCN(C5COC5)CC4)c(OCCO)c3)n2)nc1N [Ex.-7, 2-(5-((6-(6-amino-5-methylpyrazin-2-yl)imidazo[1,2-a]pyrazin-8-yl)amino)-2-(4-(oxetan-3-yl)piperazin-1-yl)phenoxy)ethanol]	–
